Laboratory results taken from patent US9032821B2, “Articles for screening insect pest-repellents and uses thereof” (National Taiwan University, priority 2012, dated 2015).
Where “and” joins values, the source holds several entries; their conditions need not be identical. Equal values may be shown once.

Experiments:
Type in all cases: in vivo
[1] = tested on: fleas; assay: Flea repellent test, blunt-end filter paper article in flat surface tube (inverted centrifuge tube); conditions: 20 fleas, counted after 30 min, tests #1-3
Source text: (§1) Two types of filter paper articles were constructed. Specifically, article with two blunt ends (herein after “blunt-end article”) and article with one tapered end and one blunt end (herein after “tapered-end article”), were constructed in accordance with the procedures depicted in FIG. 2, except minor modifications for the blunt-end article, in which each of the two filter paper stripes were not cut diagonally from one end, and therefore both ends remained blunt after the two filter paper stripes were adhered. Repellents test were then conducted using the respective articles so as to develop an improved system and/or method for screening a candidate insect pest-repellent.

[2] = tested on: fleas; assay: Flea repellent test, tapered-end filter paper article in concave surface (round-ended glass) tube
Source text: as §1

[3] = tested on: fleas; assay: Screening of essential oils as flea-repellents, tapered-end article in round-ended tube, repellency (PR %); conditions: concentration of about 1% (wt %)
Source text: In another aspect, a method of screening a candidate insect pest-repellant using the article 100 of FIG. 1 is provided. Referring again to FIG. 2, during the operation of screening an effective insect pest-repellent, a few drops of a candidate insect pest-repellent solution and a control solution (e.g., a buffer or water) are respectively applied onto the two paper strips (i.e., the first and second paper strips (110, 120) respectively having the first and second tapered ends (111, 121)), and allowed them to spread evenly throughout the respective papers. The two paper strips (110, 120) are then let standing for a few minutes to dry. […] In one example, the entire set up (i.e., including the article 100, the tube 140 and the fleas) is let stand for at least 30 min, before the number of insect pests on respective paper strips (110, 120) are counted. Repellency (PR %) of the candidate insect pest-repellent is determined by the following equation, […]
The article was let stand for about 30 min until it was dried. […] After 30 min, the numbers of fleas on respective sides of the filtered paper article was then counted. Repellency (PR %) of each candidate essential oils was calculated in accordance with the following equation, […]

[4] = tapered end article + concave surface tube, 20 fleas, counted after 30 min, tests #1-3

SMILES	number of fleas in the Bottom of the tube [1]	number of fleas on Control (untreated) side of the article [1]	number of fleas on Treated side of the article [1]	repellent activity towards fleas ([2]; in words, from Table 1, compared with the two commercial flea repellents)	number of fleas on Control (untreated) side of the article [2, 4]	number of fleas on Treated side of the article [2, 4]	repellency [3]
CCO [75% Ethanol, ethanol]	4 and 2 and 3	10 and 8 and 6	6 and 10 and 11	no repellent activity	9 and 11	9 and 11 and 8	
O=CC=Cc1ccccc1 [cinnamaldehyde]							at least 97%
